Test results reported in US20140314857A1, “FORMULATIONS FOR ENHANCED BIOAVAILABILITY OF ZANAMIVIR” (priority 2012, published 2014).
Several values for one entry are separate records, joined by “and”; a condition that tells them apart may be missing. Equal entries are not always repeated.

Test: Intraduodenal bioavailability of zanamivir from glycerol and PBS formulations, enhancer pre-dose (Example 6)
Conditions: for half-life: t1/2, ID 1.5 mg/animal
Excerpt: Male Sprague-Dawley rats (Hilltop Labs), 3 animals per treatment group, 250-350 grams in weight, were fitted with a jugular vein cannula (JVC). Animals intended for intraduodenal dosing were also fitted with one or more intraduodenal cannula (IDC) and those intended for intravenous dosing were fitted with a second JVC. Food was withheld from the animals for a minimum of twelve hours prior to test article administration and was returned approximately four hours post-dose. Water was supplied ad libitum.
Intraduodenal doses composed of 1.5 mg of zanamivir and varying amounts of an enhancer (glycerol or Capmul MCM L8) were injected directly into the duodenum via the IDC. Intravenous dosing was conducted by the injection of 1.5 mg of zanamivir in 200 μL of PBS through a JVC. For some experiments, the absorption enhancer was administered intraduodenally 2 hr prior to administering 1.5 mg of zanamivir in PBS through a second IDC. Each intraduodenal dose was followed with the introduction of a small air bubble (˜10 μL) in the cannula followed by a flush of 125 μL of PBS to ensure the dose was given in full. The volume of PBS used for cannula flush was consistent across the treatment groups. The cannula was tied to prevent the PBS remaining in the cannula from entering the duodenum.
Blood samples collected via the JVC, approximately 400 μL each, were obtained at 2 min, 5 min, 15 min, 30 min, 60 min, 90 min, and 120 min, with sodium heparin used as an anti-coagulant. Each sample was placed into a chilled tube containing the anticoagulant and kept on ice until centrifugation at 4° C., 3,000×g, for 5 min. The plasma supernatants were stored at −70° C. until LC-MS analysis.
Dosing solution samples were assayed by LC-MS/MS using electrospray ionization. The chromatographic system consisted of Perkin Elmer series 200 micropumps and autosampler equipped with a Waters Atlantic® HILIC Silica 3 μM, 2.1×50 mm column. The mass spectrometer was a PE Sciex API 4000 with electrospray interface in multiple reaction monitoring mode. […] Stock solutions (1 mg/mL zanamivir) were prepared in water. Standards (eight concentrations) were prepared in the appropriate matched matrix (HBSSg or Sprague-Dawley rat plasma containing sodium heparin) and diluted 50-fold with methanol. Experimental samples were treated identically.
Standards and samples were prepared in Sprague Dawley rat plasma containing sodium heparin as an anticoagulant. An eight-point calibration curve was prepared at concentrations of 1000, 750, 500, 250, 100, 50, 25, and 10 ng/mL by serial dilution. Standard samples were treated identically to the study samples.
Plasma samples were extracted by protein precipitation in methanol.
In this example, the bioavailability of Zanamivir was evaluated after intraduodenal doses in male Sprague-Dawley rats. The test compound was dosed at 1.5 mg/animal through intraduodenal routes from glycerol and PBS formulations. Plasma levels were determined by LC-MS/MS analysis. Pharmacokinetic parameters were estimated by a non-compartmental model using WinNonlin v5.2.1 software.

Structure (SMILES): CC(=O)NC1C(NC(=N)N)C=C(C(=O)O)OC1C(O)C(O)CO (stereo not shown) [Zanamivir, 5-acetamido-4-guanidino-6-(1,2,3-trihydroxypropyl)-5,6-dihydro-4H-pyran-2-carboxylic acid]
- Plasma concentration (ID 1.5 mg/animal, 50 µL PBS, 50 µL blank Capmul MCM L8 -2 hr, 0.25 hr, individual rats): 27.1 ng/mL and 28.1 ng/mL
- Plasma concentration (ID 1.5 mg/animal, 50 µL PBS, 50 µL blank Capmul MCM L8 -2 hr, 0.5 hr, individual rats): 34.5 ng/mL and 42.9 ng/mL
- Plasma concentration (ID 1.5 mg/animal, 50 µL PBS, 50 µL blank Capmul MCM L8 -2 hr, 0.83 hr, individual rats): 18.1 ng/mL and 8.00 ng/mL and 6.27 ng/mL
- Plasma concentration (ID 1.5 mg/animal, 50 µL PBS, 50 µL blank Capmul MCM L8 -2 hr, 1.0 hr, individual rats): 33.1 ng/mL and 32.1 ng/mL
- Plasma concentration (ID 1.5 mg/animal, 50 µL PBS, 50 µL blank Capmul MCM L8 -2 hr, 1.5 hr, individual rats): 61.5 ng/mL and 23.2 ng/mL and 31.4 ng/mL
- Plasma concentration (ID 1.5 mg/animal, 50 µL PBS, 50 µL blank Capmul MCM L8 -2 hr, 2.0 hr, individual rats): 68.3 ng/mL and 14.8 ng/mL and 18.2 ng/mL
- Tmax (ID 1.5 mg/animal, 50 µL PBS, 50 µL blank Capmul MCM L8 -2 hr, individual rats): 2.00 h
- Plasma concentration (ID 1.5 mg/animal, 50 µL PBS, 150 µL blank glycerol -2 hr, 0.25 hr, individual rats): 65.2 ng/mL and 28.9 ng/mL and 61.2 ng/mL
- Plasma concentration (ID 1.5 mg/animal, 50 µL PBS, 150 µL blank glycerol -2 hr, 0.5 hr, individual rats): 40.1 ng/mL and 72.3 ng/mL
- Plasma concentration (ID 1.5 mg/animal, 50 µL PBS, 150 µL blank glycerol -2 hr, 0.83 hr, individual rats): 22.7 ng/mL and 1.47 ng/mL and 48.9 ng/mL
- Plasma concentration (ID 1.5 mg/animal, 50 µL PBS, 150 µL blank glycerol -2 hr, 1.0 hr, individual rats): 39.8 ng/mL and 38.4 ng/mL
- Plasma concentration (ID 1.5 mg/animal, 50 µL PBS, 150 µL blank glycerol -2 hr, 1.5 hr, individual rats): 45.8 ng/mL and 34.5 ng/mL
- Plasma concentration (ID 1.5 mg/animal, 50 µL PBS, 150 µL blank glycerol -2 hr, 2.0 hr, individual rats, BLOQ = below 10 ng/mL): 54.8 ng/mL
- Tmax (ID 1.5 mg/animal, 50 µL PBS, 150 µL blank glycerol -2 hr, individual rats): 1.50 h
- Plasma concentration (ID 1.5 mg/animal, 100 µL Glycerol, 0.25 hr, individual rats): 76.4 ng/mL and 40.7 ng/mL
- Plasma concentration (ID 1.5 mg/animal, 100 µL Glycerol, 0.5 hr, individual rats): 59.2 ng/mL and 35.6 ng/mL
- Plasma concentration (ID 1.5 mg/animal, 100 µL Glycerol, 0.83 hr, individual rats): 55.4 ng/mL and 78.4 ng/mL and 37.5 ng/mL
- Plasma concentration (ID 1.5 mg/animal, 100 µL Glycerol, 1.0 hr, individual rats): 55.3 ng/mL and 39.4 ng/mL
- Plasma concentration (ID 1.5 mg/animal, 100 µL Glycerol, 1.5 hr, individual rats): 29.6 ng/mL and 47.6 ng/mL and 63.5 ng/mL
- Plasma concentration (ID 1.5 mg/animal, 100 µL Glycerol, 2.0 hr, individual rats): 30.8 ng/mL and 37.4 ng/mL and 94.5 ng/mL
- Tmax (ID 1.5 mg/animal, 100 µL Glycerol, individual rats): 2.00 h
- t1/2 (ID 1.5 mg/animal, 100 µL Glycerol, mean (n = 1)): 1.77 h
- Plasma concentration (ID 1.5 mg/animal, 150 µL Glycerol, 0.25 hr, individual rats): 57.9 ng/mL and 96.3 ng/mL
- Plasma concentration (ID 1.5 mg/animal, 150 µL Glycerol, 0.5 hr, individual rats): 919 ng/mL and 57.8 ng/mL and 55.9 ng/mL
- Plasma concentration (ID 1.5 mg/animal, 150 µL Glycerol, 0.83 hr, individual rats): 72.7 ng/mL and 108 ng/mL
- Plasma concentration (ID 1.5 mg/animal, 150 µL Glycerol, 1.0 hr, individual rats): 60.6 ng/mL and 36.6 ng/mL
- Plasma concentration (ID 1.5 mg/animal, 150 µL Glycerol, 1.5 hr, individual rats): 46.8 ng/mL and 46.9 ng/mL and 16.0 ng/mL
- Plasma concentration (ID 1.5 mg/animal, 150 µL Glycerol, 2.0 hr, individual rats): 37.7 ng/mL and 33.4 ng/mL and 16.7 ng/mL
- tmax (second line so headed, Table 10) (ID 1.5 mg/animal, 150 µL Glycerol, individual rats): 1.16 h
- half-life (male, Sprague-Dawley, rat, in vivo, 1.5 mg, 50 µL PBS, 50 µL blank Capmul MCM L8 -2 hr, individual rats): 0.86 h
- half-life (male, Sprague-Dawley, rat, in vivo, 1.5 mg, 50 µL PBS, 50 µL blank Capmul MCM L8 -2 hr, mean (n = 1)): 0.86 h
- half-life (male, Sprague-Dawley, rat, in vivo, 1.5 mg, 100 µL Glycerol, individual rats): 1.77 h
- half-life (male, Sprague-Dawley, rat, in vivo, 1.5 mg, 100 µL Glycerol, mean (n = 1)): 1.77 h
- half-life (male, Sprague-Dawley, rat, in vivo, 1.5 mg, 150 µL Glycerol, mean (n = 2)): 1.63 h
- Tmax (male, Sprague-Dawley, rat, in vivo, 1.5 mg, tmax (second line so headed, Table 10), ID 1.5 mg/animal, 150 µL Glycerol, individual rats): 2.09 h
- Tmax (male, Sprague-Dawley, rat, in vivo, 1.5 mg, tmax (second line so headed, Table 10), ID 1.5 mg/animal, 150 µL Glycerol, mean): 1.63 h
- Tmax (male, Sprague-Dawley, rat, in vivo, 1.5 mg, tmax, ID 1.5 mg/animal, 50 µL PBS, 50 µL blank Capmul MCM L8 -2 hr, mean): 1 h
- Tmax (male, Sprague-Dawley, rat, in vivo, 1.5 mg, tmax, ID 1.5 mg/animal, 50 µL PBS, 150 µL blank glycerol -2 hr, mean): 0.75 h
- Tmax (male, Sprague-Dawley, rat, in vivo, 1.5 mg, tmax, ID 1.5 mg/animal, 100 µL Glycerol, mean): 0.72 h
- concentration at 0.25 hr (male, Sprague-Dawley, rat, in vivo, 1.5 mg/animal, Plasma concentration, ID 1.5 mg/animal, 50 µL PBS, 50 µL blank Capmul MCM L8 -2 hr, 0.25 hr, individual rats): 33.3 ng/mL
